Structures are written as SMILES.

We go through 14 compounds from patent US8299048B2, “Hexahydrocyclopentyl[f]indazole sulfonamides and derivatives thereof as selective glucocorticoid receptor modulators” (Merck Sharp & Dohme Corp., priority 2008, dated 2012).

Assay [1] addresses T1, human GR (Homo sapiens, UniProt P04150).
T1 sequence (P04150 1-777): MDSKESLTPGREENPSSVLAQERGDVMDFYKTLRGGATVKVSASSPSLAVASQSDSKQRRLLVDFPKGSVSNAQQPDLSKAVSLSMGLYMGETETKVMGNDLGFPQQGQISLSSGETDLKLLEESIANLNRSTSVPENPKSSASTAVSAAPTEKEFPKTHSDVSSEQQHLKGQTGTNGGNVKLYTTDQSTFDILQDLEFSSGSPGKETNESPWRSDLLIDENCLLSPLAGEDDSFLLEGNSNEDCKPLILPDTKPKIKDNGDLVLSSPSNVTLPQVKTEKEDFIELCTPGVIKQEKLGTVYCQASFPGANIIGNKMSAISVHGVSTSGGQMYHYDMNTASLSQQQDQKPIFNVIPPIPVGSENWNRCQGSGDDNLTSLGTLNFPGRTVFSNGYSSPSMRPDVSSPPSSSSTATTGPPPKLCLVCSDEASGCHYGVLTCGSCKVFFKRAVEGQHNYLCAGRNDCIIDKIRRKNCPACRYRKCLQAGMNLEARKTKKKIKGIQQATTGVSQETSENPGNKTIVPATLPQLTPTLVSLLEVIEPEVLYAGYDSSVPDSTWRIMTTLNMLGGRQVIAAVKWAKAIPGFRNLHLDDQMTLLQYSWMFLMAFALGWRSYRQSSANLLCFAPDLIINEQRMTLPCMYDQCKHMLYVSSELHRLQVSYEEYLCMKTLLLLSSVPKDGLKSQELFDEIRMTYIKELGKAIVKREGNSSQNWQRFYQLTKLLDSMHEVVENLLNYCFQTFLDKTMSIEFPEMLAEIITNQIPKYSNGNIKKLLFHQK
Kind of assay: Transrepression Assay (GITAR), TNFα-β-lactamase reporter in U937 cells. The class given is cell-based. Details: U937 cells contain an endogenous glucocorticoid receptor (GR); endogenous in cells; host or cells: U937 cells stably transfected with the TNF-alpha promoter/beta-lactamase reporter. As to conditions: for GITAR > GRAMM % SEP: GITAR Emax minus GRAMMER Emax; for EC50: U937 cells, inflection point, read-out: Transrepression U937 Cells GITAR IP. The method in brief: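 U937 cells stably carrying a TNF-α promoter–β-lactamase reporter, with endogenous GR, are preincubated with compound 30–45 min at 37 °C, then stimulated with PMA (5 ng/ml final) and LPS (100 ng/ml final) overnight (~18 hr). β-Lactamase is read with CCF2-AM substrate; repression by 100 nM dexamethasone defines 100%.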

Assay [2] has as its target T1, human GR. Description: Trans-Activation Modulation of Glucocorticoid Receptor (GRAMMER), MMTV-LUC reporter, agonist mode. As to conditions: for Emax: A549, A549 cells, maximum activity, read-out: Transactivation A549 Cells GRAMMER Emax; for EC50: A549 cells, inflection point, read-out: Transactivation A549 Cells GRAMMER IP. Details: endogenous in cells. It is filed as cell-based. The method in brief: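 Readout is luciferase from a modified MMTV LTR promoter after 24 h compound exposure alongside 10 nM dexamethasone (100% activity reference), DMSO ≤1%.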

Setting [3] is: U-937, U937 cells, maximum activity, read-out: Transrepression U937 Cells GITAR Emax.
Setting [4] is: U-937, activity repressed by 100 nM dexamethasone alone set as 100%, read-out: maximal activity in the transrepression (GITAR) assay.

On to `Cc1noc(C)c1S(=O)(=O)N(CCO)C[C@H]1CCC2=Cc3c(cnn3-c3ccc(F)cc3)C[C@@]21C` [Example 71, N-{[(4αR,5S)-1-(4-fluorophenyl)-4α-methyl-1,4,4α,5,6,7-hexahydrocyclopenta[f]indazol-5-yl]methyl}-N-(2-hydroxyethyl)-3,5-dimethylisoxazole-4-sulfonamide], for which the “GITAR > GRAMM % SEP” value in assay [1] was determined as 19.2%. For the same compound, the values for the EC50 in assay [1] and in assay [2] were 302 nM and 257 nM, respectively. In addition, the Emax in assay [1] (setting [3]) is 82.3%; in assay [1] (setting [4]) it was above 5%; in assay [2] it was 63.1%.
For `C[C@]12Cc3cnn(-c4ccc(F)cc4)c3C=C1CC[C@@H]2CN(CCO)S(=O)(=O)c1cc(F)cc(F)c1` [Example 72], the “GITAR > GRAMM % SEP” value in assay [1] is on record as 25.5%. Besides, the results for the EC50 in assay [1] and in assay [2] were 486 nM and 475 nM, respectively. The Emax is 60.8% in assay [1] (setting [3]), above 5% in assay [1] (setting [4]) and 35.3% in assay [2].
As to `COC(=O)c1ccccc1S(=O)(=O)N(CCO)C[C@H]1CCC2=Cc3c(cnn3-c3ccc(F)cc3)C[C@@]21C` [Example 73, methyl 2-{[{[(4αR,5S)-1-(4-fluorophenyl)-4α-methyl-1,4,4α,5,6,7-hexahydrocyclopenta[f]indazol-5-yl]methyl}(2-hydroxyethyl)amino]sulfonyl}benzoate], in assay [1], the “GITAR > GRAMM % SEP” value came out at 56.0%. Besides, the results for the EC50 in assay [1] and in assay [2] were 363 nM and 364 nM, respectively. For the same compound, the Emax in assay [1] (setting [3]) is 81.4%; in assay [1] (setting [4]) it was above 5%; in assay [2], 25.4%.
As to `C[C@]12Cc3cnn(-c4ccc(F)cc4)c3C=C1CC[C@@H]2CN(CCO)S(=O)(=O)c1ccc(Oc2ccccn2)cc1` [Example 74, N-{[(4αR,5S)-1-(4-fluorophenyl)-4α-methyl-1,4,4α,5,6,7-hexahydrocyclopenta[f]indazol-5-yl]methyl}-N-(2-hydroxyethyl)-4-(pyridin-2-yloxy)benzenesulfonamide], the “GITAR > GRAMM % SEP” value in assay [1] is 9.9%. Further, the EC50 in assay [1] came out at 1140 nM; in assay [2], 1030 nM. The Emax in assay [1] (setting [3]) was 44.1%; in assay [1] (setting [4]), above 5%; in assay [2], 34.1%.
Consider `C[C@]12Cc3cnn(-c4ccc(F)cc4)c3C=C1CC[C@@H]2CN(CCO)S(=O)(=O)Cc1ccccc1` [Example 75, N-{[(4αR,5S)-1-(4-fluorophenyl)-4α-methyl-1,4,4α,5,6,7-hexahydrocyclopenta[f]indazol-5-yl]methyl}-N-(2-hydroxyethyl)-1-phenylmethanesulfonamide], for which the “GITAR > GRAMM % SEP” value in assay [1] came out at 14.4%. Besides, the figures for the EC50 in assay [1] and in assay [2] were 473 nM and 450 nM, respectively. Also, the values for the Emax in assay [1] (setting [3]), in assay [1] (setting [4]) and in assay [2] were 28.8%, above 5% and 14.4%, respectively.
As to `CNC(=O)Nc1ccc(S(=O)(=O)N(CCO)C[C@H]2CCC3=Cc4c(cnn4-c4ccc(F)cc4)C[C@@]32C)c(Cl)c1` [Example 76, 2-chloro-N-{[(4αR,5S)-1-(4-fluorophenyl)-4α-methyl-1,4,4α,5,6,7-hexahydrocyclopenta[f]indazol-5-yl]methyl}-N-(2-hydroxyethyl)-4-{[(methylamino)carbonyl]amino}-benzenesulfonamide], the “GITAR > GRAMM % SEP” value in assay [1] came to 9.5%. Moreover, the figures for the EC50 in assay [1] and in assay [2] were 2110 nM and 1960 nM, respectively. In addition, the Emax was 13% in assay [1] (setting [3]), above 5% in assay [1] (setting [4]) and 3.5% in assay [2].
Turning to `Cc1ccccc1S(=O)(=O)N(CCO)C[C@H]1CCC2=Cc3c(cnn3-c3ccc(F)cc3)C[C@@]21C` [Example 77, N-{[(4αR,5S)-1-(4-fluorophenyl)-4α-methyl-1,4,4α,5,6,7-hexahydrocyclopenta[f]indazol-5-yl]methyl}-N-(2-hydroxyethyl)-2-methylbenzenesulfonamide], in assay [1], the “GITAR > GRAMM % SEP” value is 25.7%. Moreover, the EC50 in assay [1] was 1130 nM; in assay [2], 901 nM. For the same compound, the Emax in assay [1] (setting [3]) was 43.6%; in assay [1] (setting [4]), above 5%; in assay [2], 17.9%.
On to `C[C@]12Cc3cnn(-c4ccc(F)cc4)c3C=C1CC[C@@H]2CN(CCO)S(=O)(=O)c1ccccc1C#N` [Example 78, 2-cyano-N-{[(4αR,5S)-1-(4-fluorophenyl)-4α-methyl-1,4,4α,5,6,7-hexahydrocyclopenta[f]indazol-5-yl]methyl}-N-(2-hydroxyethyl)benzenesulfonamide], for which, in assay [1], the “GITAR > GRAMM % SEP” value came to 15.9%. In addition, the EC50 in assay [1] was determined as 883 nM; in assay [2], 652 nM. The Emax in assay [1] (setting [3]) was 66.5%; in assay [1] (setting [4]) it was above 5%; in assay [2], 50.6%.
In the case of `C[C@]12Cc3cnn(-c4ccc(F)cc4)c3C=C1CC[C@@H]2CN(CCO)S(=O)(=O)c1ccc(Oc2ccccc2)cc1` [Example 79, N-{[(4αR,5S)-1-(4-fluorophenyl)-4α-methyl-1,4,4α,5,6,7-hexahydrocyclopenta[f]indazol-5-yl]methyl}-N-(2-hydroxyethyl)-4-phenoxybenzenesulfonamide], the “GITAR > GRAMM % SEP” value in assay [1] is recorded as 64.3%. In addition, the results for the EC50 in assay [1] and in assay [2] were 1950 nM and 1320 nM, respectively. Moreover, the Emax in assay [1] (setting [3]) was 71.8%; in assay [1] (setting [4]) it was above 5%; in assay [2], 7.5%.
With `C[C@]12Cc3cnn(-c4ccc(F)cc4)c3C=C1CC[C@@H]2CN(CCO)S(=O)(=O)c1cc(C(F)(F)F)ccc1Cl` [Example 80, 2-chloro-N-{[(4αR,5S)-1-(4-fluorophenyl)-4α-methyl-1,4,4α,5,6,7-hexahydrocyclopenta[f]indazol-5-yl]methyl}-N-(2-hydroxyethyl)-5-(trifluoromethyl)benzenesulfonamide], the “GITAR > GRAMM % SEP” value in assay [1] is reported as 64.0%. Also, the EC50 is 2580 nM in assay [1] and 1140 nM in assay [2]. The Emax is 70% in assay [1] (setting [3]), above 5% in assay [1] (setting [4]) and 6% in assay [2].
With `C[C@]12Cc3cnn(-c4ccc(F)cc4)c3C=C1CC[C@@H]2CN(CCO)S(=O)(=O)c1ccccc1Cl` [Example 81, 2-chloro-N-{[(4αR,5S)-1-(4-fluorophenyl)-4α-methyl-1,4,4α,5,6,7-hexahydrocyclopenta[f]indazol-5-yl]methyl}-N-(2-hydroxyethyl)benzenesulfonamide], the “GITAR > GRAMM % SEP” value in assay [1] was 59.5%. The values for the EC50 in assay [1] and in assay [2] were 959 nM and 461 nM, respectively. Besides, the Emax was 76.7% in assay [1] (setting [3]), above 5% in assay [1] (setting [4]) and 17.2% in assay [2].
Consider `C[C@]12Cc3cnn(-c4ccc(F)cc4)c3C=C1CC[C@@H]2CN(CCO)S(=O)(=O)c1ccc(F)cc1F` [Example 82, 2,4-difluoro-N-{[(4αR,5S)-1-(4-fluorophenyl)-4α-methyl-1,4,4α,5,6,7-hexahydrocyclopenta[f]indazol-5-yl]methyl}-N-(2-hydroxyethyl)benzenesulfonamide], for which the “GITAR > GRAMM % SEP” value in assay [1] is given as 29.1%. Besides, the EC50 in assay [1] was 220 nM; in assay [2] it was 287 nM. Besides, the Emax was 90.2% in assay [1] (setting [3]), above 5% in assay [1] (setting [4]) and 61.1% in assay [2].
Take `Cc1nn(C)c(Cl)c1S(=O)(=O)N(CCO)C[C@H]1CCC2=Cc3c(cnn3-c3ccc(F)cc3)C[C@@]21C` [Example 83, 5-chloro-N-{[(4αR,5S)-1-(4-fluorophenyl)-4α-methyl-1,4,4α,5,6,7-hexahydrocyclopenta[f]indazol-5-yl]methyl}-N-(2-hydroxyethyl)-1,3-dimethyl-1H-pyrazole-4-sulfonamide]: the “GITAR > GRAMM % SEP” value in assay [1] stood at 52.6%. Besides, the EC50 in assay [1] was 1320 nM; in assay [2], 568 nM. Also, the values for the Emax in assay [1] (setting [3]), in assay [1] (setting [4]) and in assay [2] were 59.5%, above 5% and 6.9%, respectively.
With `C[C@]12Cc3cnn(-c4ccc(F)cc4)c3C=C1CC[C@@H]2CN(CCO)S(=O)(=O)c1ccccc1-c1ccccc1` [Example 84, N-{[(4αR,5S)-1-(4-fluorophenyl)-4α-methyl-1,4,4α,5,6,7-hexahydrocyclopenta[f]indazol-5-yl]methyl}-N-(2-hydroxyethyl)biphenyl-2-sulfonamide], in assay [1], the “GITAR > GRAMM % SEP” value came to 66.3%. In addition, the figures for the EC50 in assay [1] and in assay [2] were 799 nM and 442 nM, respectively. Besides, the Emax is 86% in assay [1] (setting [3]), above 5% in assay [1] (setting [4]) and 19.7% in assay [2].
